Experiments:
[1] = tested on: human islets transplanted into STZ-treated NOD-SCID mice; test: Transplantation of compound-treated human islets into STZ-treated NOD-SCID mice; format: in vivo, mouse; conditions: islets treated in vitro before transplantation
From the text: Figure 2 AP compounds expand human islets ex vivo with retention of function after transplantation. […] (a) Immunofluorescence for insulin, Ki67 and DAPI on DMSO or GNF4877-treated human intact islets (scale bar, 50 μm). (b) Quantification of Ki67+ as a percent of total insulin+ cells (n=3). […] Data are shown as mean±s.d. (six mice per group; transplanted with islets from a single human donor). […] Data shown as mean±s.d.; (n=6 mice/group, *P<0.05, Student's t-test).
We tested whether aminopyrazine treatment of islets compromised their ability to secrete insulin in vitro and, after transplantation, in vivo.

[2] = molecular target: T1, GSK3beta (Homo sapiens, UniProt P49841); test: Kinase profiling; format: biochemical; conditions: Conc 1000 nM; read-out: Percent inhibition, GSK3beta
T1 construct: purchased Ambit KINOMEscan

[3] = molecular target: T2, Dyrk1a (Homo sapiens, UniProt Q13627); test: Kinase profiling; format: biochemical; conditions: Conc 1000 nM; read-out: Percent inhibition, DYRK1a
T2 construct: purchased Ambit KINOMEscan

[4] = tested on: human islets in STZ-treated NSG mice; test: Human islets transplanted under kidney capsule of STZ-treated NSG mice, oral dosing; format: in vivo, mouse; conditions: 50 mg kg^−1, twice daily, 9 days
From the text: All animal care and experimental procedures were approved by the Institutional Animal Care and Use Committee (IACUC) of Genomics Institute of the Novartis Research Foundation and strictly followed the NIH guidelines for humane treatment of animals. The double transgenic RIP-DTA male mice (Tg(Ins2-rtTA)2Efr Tg(teto-DTA)1Gfi/J; Jackson Laboratory, Stock # 008755) were bred in-house and were maintained in a 12-h light/12-dark cycle environment with controlled temperature, humidity and ventilation. Animals were housed 3–5 mice per cage and had free access to water and standard laboratory chow. […] Blood glucose levels were measured from tail-vein blood with a glucometer (AlphaTrak2 Monitoring System; Abbott). […] Body weight and blood glucose were monitored every third day. […] Pancreatic insulin content was determined by MSD (meso-scale discovery). […] Baseline body weight and tail-vein blood glucose measurements were recorded before diabetic induction. To obtain a diabetic state, animals were given an intraperitoneal dose of STZ (135 mg kg^−1) and blood glucose was monitored before transplant. […]
Human islets (obtained commercially from Prodo Laboratories Inc.) were recovered for 48 h before transplantation. […] While mice were prepared, islets were counted according to IEQs and prepared into islet suspension of 800 IEQ/mouse in cold PBS. […]

[5] = tested on: intact human islets; test: Intact human islet assay (Ki67, cell numbers); format: cell-based; conditions: 8 days
Experimental: Rat or human β-cell proliferation assays were performed using dissociated primary rat or human islets. Islets were treated with the indicated compounds in the presence of EdU for 4 days before fixing and staining. EdU incorporation was measured by click reaction with AlexaFluor-647-azide (Invitrogen). For intact islet assays, primary human islets were treated for 7 or 8 days (as indicated in the legend). Rat dissociated islets were cultured in RPMI medium containing 10% FBS and human dissociated islets were cultured in PIM-S media (Prodo laboratories) with 10% human […].

[6] = molecular target: T3, Fyn (Homo sapiens, UniProt P06241); test: Kinase profiling; format: biochemical; conditions: read-out: Percent inhibition, Fyn
T3 construct: purchased Ambit KINOMEscan
From the text: ; Fig. 5a; Supplementary Table 1). We focused on Dyrk1a because other kinases inhibited by aminopyrazine compounds were not highly expressed in β-cells and because Dyrk1a was known to inhibit the NFAT pathway that was previously implicated in β-cell proliferation. We used molecular modelling to dock the aminopyrazine compounds into the published structure of Dyrk1a (protein databank accession code 2vx3.pdb; Fig. 5b).

[7] = tested on: primary human islets; test: TUNEL in β-cells; format: cell-based; conditions: 4 days in the presence of EdU
Experimental: Supplementary Figure 2. […] (a-c) Primary human […]
for 4 days in the presence of EdU. […]
effects on TUNEL in EdU positive cells while CDK6 and Cyclin D1 increased TUNEL staining in EdU positive cells (consistent with previous reports) (n=3; mean ± SD). (d) Human islets were […]
for 16 hrs in the presence of EdU. Following treatment, cells were analyzed for TUNEL, and stained for insulin and DAPI.
TUNEL without EdU incorporation. […]
(1 picture or pasted object on this page, not shown here)

T3 sequence (P06241 whole entry): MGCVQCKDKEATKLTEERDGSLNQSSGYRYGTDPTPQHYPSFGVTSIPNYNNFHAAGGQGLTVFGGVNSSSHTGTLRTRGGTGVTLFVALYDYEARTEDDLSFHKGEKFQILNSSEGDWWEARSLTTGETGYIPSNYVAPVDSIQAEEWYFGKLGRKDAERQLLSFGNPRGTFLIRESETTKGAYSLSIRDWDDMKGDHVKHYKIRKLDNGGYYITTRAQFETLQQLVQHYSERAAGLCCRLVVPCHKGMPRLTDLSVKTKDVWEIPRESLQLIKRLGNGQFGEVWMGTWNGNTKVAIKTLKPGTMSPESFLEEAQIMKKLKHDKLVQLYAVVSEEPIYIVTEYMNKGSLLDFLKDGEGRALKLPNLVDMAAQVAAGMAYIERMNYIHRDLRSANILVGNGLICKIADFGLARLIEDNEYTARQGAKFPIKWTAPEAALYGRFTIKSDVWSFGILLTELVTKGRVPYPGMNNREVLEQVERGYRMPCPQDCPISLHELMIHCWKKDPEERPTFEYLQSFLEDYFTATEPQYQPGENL
T1 sequence (P49841 whole entry): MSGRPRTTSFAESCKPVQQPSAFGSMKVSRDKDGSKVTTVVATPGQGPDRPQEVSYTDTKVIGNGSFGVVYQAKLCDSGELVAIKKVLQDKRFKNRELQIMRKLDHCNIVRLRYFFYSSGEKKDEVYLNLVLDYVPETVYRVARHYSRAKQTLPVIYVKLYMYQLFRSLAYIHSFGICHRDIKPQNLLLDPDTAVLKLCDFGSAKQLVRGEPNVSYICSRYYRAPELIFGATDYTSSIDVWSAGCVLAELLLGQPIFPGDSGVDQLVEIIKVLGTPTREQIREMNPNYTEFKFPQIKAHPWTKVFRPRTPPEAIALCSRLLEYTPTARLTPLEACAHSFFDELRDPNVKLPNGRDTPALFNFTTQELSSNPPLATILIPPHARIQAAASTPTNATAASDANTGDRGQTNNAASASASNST

`Nc1ncc(-c2ccccc2)nc1C(=O)Nc1cnccc1N1CCC(C(=O)O)CC1` [GNF7156] was tested, and the “euglycemia after transplantation of treated islets” value [1] was “maintained the ability to preserve euglycemia”, the inhibition at 1 µM [2] was 99% and the inhibition at 1 µM [3] was 98%.
In the case of `CC(C)Oc1ccc(F)c(-c2cnc(N)c(C(=O)Nc3cnccc3N3CCC[C@@H](C(=O)O)C3)n2)c1` [GNF4877], the “glucose control (fed glucose levels)” value [4] is reported as “trend towards improved glucose control”, the “increase in the number of Ki67-positive insulin-positive cells” value [5] is reported as 20 fold and the inhibition at 0.2 µM ([6]; Conc 200 nM) is reported as 26%. The inhibition at 1 µM ([6]; Conc 1000 nM) was 77% and the “TUNEL-positive β-cells” value [7] was “unchanged”.

Source: paper PMC4639830, “Inhibition of DYRK1A and GSK3B induces human β-cell proliferation” (Nature Communications, 2015)
